Target: T1, purified human HDAC6 (Homo sapiens, UniProt Q9UBN7)
T1 construct: purchased BPS Bioscience 5006
T1 sequence (Q9UBN7 1-1215): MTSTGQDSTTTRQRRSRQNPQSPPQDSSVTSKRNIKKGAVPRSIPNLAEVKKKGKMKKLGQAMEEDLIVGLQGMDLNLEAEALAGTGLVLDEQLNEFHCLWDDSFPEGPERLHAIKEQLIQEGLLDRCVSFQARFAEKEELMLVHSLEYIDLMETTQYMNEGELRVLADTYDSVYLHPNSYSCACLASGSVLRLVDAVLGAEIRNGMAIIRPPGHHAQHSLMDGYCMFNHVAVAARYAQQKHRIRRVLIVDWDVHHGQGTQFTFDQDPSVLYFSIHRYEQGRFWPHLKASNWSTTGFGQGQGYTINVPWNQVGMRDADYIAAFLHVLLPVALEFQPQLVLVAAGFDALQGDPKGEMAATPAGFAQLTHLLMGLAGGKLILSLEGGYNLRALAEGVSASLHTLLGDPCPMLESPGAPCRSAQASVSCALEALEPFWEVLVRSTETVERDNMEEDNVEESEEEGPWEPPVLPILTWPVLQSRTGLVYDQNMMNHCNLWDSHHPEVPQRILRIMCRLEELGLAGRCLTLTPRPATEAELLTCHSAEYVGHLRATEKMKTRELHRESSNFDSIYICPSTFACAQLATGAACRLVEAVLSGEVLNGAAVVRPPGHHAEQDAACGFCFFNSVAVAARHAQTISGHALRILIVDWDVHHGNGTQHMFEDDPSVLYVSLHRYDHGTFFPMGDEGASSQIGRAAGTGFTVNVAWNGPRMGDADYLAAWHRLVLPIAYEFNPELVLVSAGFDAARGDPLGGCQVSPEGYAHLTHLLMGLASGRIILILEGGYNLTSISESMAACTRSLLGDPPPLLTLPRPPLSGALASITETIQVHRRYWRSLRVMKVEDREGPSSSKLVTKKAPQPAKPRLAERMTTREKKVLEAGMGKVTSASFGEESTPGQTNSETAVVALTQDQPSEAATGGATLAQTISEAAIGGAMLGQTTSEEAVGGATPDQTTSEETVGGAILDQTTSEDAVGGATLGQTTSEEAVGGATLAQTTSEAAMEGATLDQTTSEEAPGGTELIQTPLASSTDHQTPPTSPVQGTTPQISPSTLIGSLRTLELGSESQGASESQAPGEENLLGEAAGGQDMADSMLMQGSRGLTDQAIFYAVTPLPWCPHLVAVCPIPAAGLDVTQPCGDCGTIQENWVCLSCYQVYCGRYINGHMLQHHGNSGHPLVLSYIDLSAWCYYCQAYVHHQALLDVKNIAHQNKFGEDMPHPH
Experiment: HDAC6 Enzyme Assay
Type: biochemical
Conditions: HDAC6 inhibition at a compound concentration of 0.412 μM; read-out: Percent Inhibition at 0.412 μM

inhibition at 0.412 µM | SMILES
93% | CC1(C(=O)Nc2cc(OC3CCc4cc(C(=O)NO)ccc4C3)ccn2)CCNCC1 (stereo not drawn) [Compound I-148, N-[4-({6-[(hydroxyamino)carbonyl]-1,2,3,4-tetrahydronaphthalen-2-yl}oxy)pyridin-2-yl]-4-methylpiperidine-4-carboxamide]
43% | COc1ccc(C2CCc3cc(C(=O)NO)ccc3C2)cc1 (stereo not drawn) [Compound I-105, N-hydroxy-6-(4-methoxyphenyl)-5,6,7,8-tetrahydronaphthalene-2-carboxamide]
87% | COc1cccc(C(=O)NC2CCc3cc(C(=O)NO)ccc3C2)c1 (stereo not drawn) [Compound I-112, N-hydroxy-6-[(3-methoxybenzoyl)amino]-5,6,7,8-tetrahydronaphthalene-2-carboxamide]
11% | CCC(C)(C)C(=O)NC1CCCc2cc(C(=O)NO)ccc21 (stereo not drawn) [Compound I-15, 5-[(2,2-dimethylbutanoyl)amino]-N-hydroxy-5,6,7,8-tetrahydronaphthalene-2-carboxamide]
74% | O=C(NO)c1ccc2c(c1)CC(CCc1ccccc1)CC2 (stereo not drawn) [Compound I-93, N-hydroxy-7-(2-phenylethyl)-5,6,7,8-tetrahydronaphthalene-2-carboxamide]
70% | Cc1cc(C(=O)NC2CCc3cc(C(=O)NO)ccc3C2)c(C)o1 (stereo not drawn) [Compound I-50, N-{6-[(hydroxyamino)carbonyl]-1,2,3,4-tetrahydronaphthalen-2-yl}-2,5-dimethyl-3-furamide]
56% | O=C(NO)c1ccc2c(c1)CCC(NC(=O)C1CCCCC1)C2 (stereo not drawn) [Compound I-49, 6-[(cyclohexylcarbonyl)amino]-N-hydroxy-5,6,7,8-tetrahydronaphthalene-2-carboxamide]
47% | O=C(NO)c1ccc2c(c1)CCCC2NC(=O)c1cnc2ccccc2n1 (stereo not drawn) [Compound I-9, N-{6-[(hydroxyamino)carbonyl]-1,2,3,4-tetrahydronaphthalen-1-yl}quinoxaline-2-carboxamide]
84% | COc1ccc(C(=O)NC2CCc3cc(C(=O)NO)ccc3C2)cc1 (stereo not drawn) [Compound I-61, N-hydroxy-6-[(4-methoxybenzoyl)amino]-5,6,7,8-tetrahydronaphthalene-2-carboxamide]
19% | O=C(NO)c1ccc2c(c1)CCCC2NC(=O)C1CCCCC1 (stereo not drawn) [Compound I-17, 5-[(cyclohexylcarbonyl)amino]-N-hydroxy-5,6,7,8-tetrahydronaphthalene-2-carboxamide]
49% | O=C(NO)c1ccc2c(c1)CCCC2 [Compound I-66, N-hydroxy-5,6,7,8-tetrahydronaphthalene-2-carboxamide]
86% | CC(C)(C)C(=O)Nc1cc(OC2CCc3cc(C(=O)NO)ccc3C2)ccn1 (stereo not drawn) [Compound I-150, 6-({2-[(2,2-dimethylpropanoyl)amino]pyridin-4-yl}oxy)-N-hydroxy-5,6,7,8-tetrahydronaphthalene-2-carboxamide]
92% | O=C(NO)c1ccc2c(c1)CC(Oc1ccccc1)CC2 (stereo not drawn) [Compound I-87, N-hydroxy-7-phenoxy-5,6,7,8-tetrahydronaphthalene-2-carboxamide]

SMILES | inhibition at 0.412 µM
CN(C)C1CCc2ccc(C(=O)NO)cc2C1 (stereo not drawn) [Compound I-80, 7-(dimethylamino)-N-hydroxy-5,6,7,8-tetrahydronaphthalene-2-carboxamide] | 43%
O=C(NO)c1ccc2c(c1)C1CCC2N1C(=O)Cc1ccccc1 (stereo not drawn) [Compound I-211, N-hydroxy-9-(phenylacetyl)-1,2,3,4-tetrahydro-1,4-epiminonaphthalene-6-carboxamide] | 51%
